# Reference: US12298319B2, “Method for measuring alpha value of muscarinic M1 receptor positive allosteric modulators” (Takeda Pharmaceutical Company Limited, priority 2017, dated 2025)
# Like-named read-outs stand apart in the source and are kept apart here.
# Assay: Pharmacokinetics after oral administration to mice
# Format: in vivo, mouse
# Conditions: for Cmax / Tmax / AUC(0-t): mouse, plasma, po; for AUC(0-t): read-out: AUC0-4 h
# Method: Plasma concentration of Compound B at 30 and 1000 mg/kg. Plasma samples were collected at 0.5, 1, 2, 4 and 6 h after oral treatment. Results represent the mean. n=3 per group.
compound,measurement,setting,value
"Cn1cc(-c2ccc(CN3Cc4cccc(Oc5c(F)cccc5C#N)c4C3=O)cc2)cn1 [Compound B, 3-fluoro-2-((2-(4-(1-methyl-1H-pyrazol-4-yl)benzyl)-3-oxo-2,3-dihydro-1H-isoindol-4-yl)oxy)benzonitrile]",Cmax,30 mg/kg p.o.,270 ng/mL
same,Tmax,30 mg/kg p.o.,2 h
same,AUC(0-t),30 mg/kg p.o.,800 ng·h/mL
same,Cmax,1000 mg/kg p.o.,970 ng/mL
same,Tmax,1000 mg/kg p.o.,1.7 h
same,AUC(0-t),1000 mg/kg p.o.,3020 ng·h/mL
same,plasma concentration at 1000 mg/kg relative to 30 mg/kg,p.o.,3.6 fold
